Measurements as given in patent US20060079453A1, “Hla binding peptides and their uses” (priority 2002, published 2006).
No end group written: not given here.

Experiments:
Test in all cases: biochemical
Type in all cases: binding
HLA-DR DRB1*0802 (DR8) = HLA-DR DRB1*0802 (DR8) (Homo sapiens, UniProt P01903+P01911, A100R/A103L/A169T/F76Y/H45Y/I96F/K41T/L162R/M171V/P40S/Q125H/Q178H/Q39Y/Q99D/R218S/R42G/S66Y/V115G/W38E)
HLA-DR DRB4*0101 (DR53) = HLA-DR DRB4*0101 (DR53) (Homo sapiens, UniProt P01903+P13762, G164S); settings: DRB4 *0101
HLA-DR DRB1*1501 (DR15) = HLA-DR DRB1*1501 (DR15) (Homo sapiens, UniProt P01903+P01911); settings: DRBI *1501
HLA-DR DRB5*0101 (DR51) = HLA-DR DRB5*0101 (DR51) (Homo sapiens, UniProt P01903+Q30154); settings: DRB5 *0101
HLA-DR DRB1*1302 (DR13) = HLA-DR DRB1*1302 (DR13) (Homo sapiens, UniProt P01903+P01911, A100E/A169T/K41T/L162R/M171V/P40S/Q125H/Q178H/Q39Y/Q99D/R42S/S66N/T262R/V115G/W38E/Y61H); settings: DRBI *1302
HLA-DR DRB1*0401 (DR4) = HLA-DR DRB1*0401 (DR4) (Homo sapiens, UniProt P01903+P01911, A100K/A169T/F76Y/I96L/K127E/L162R/M171V/N62H/P40V/Q125Y/R42H/S133A/S149N/S66Y/V115G/V209L/W38E); settings: DRB1 *0401
HLA-DR DRB3*0101 (DR52) = HLA-DR DRB3*0101 (DR52) (Homo sapiens, UniProt P01903+P79483)
HLA-DR DRB1*0901 (DR9) = HLA-DR DRB1*0901 (DR9) (Homo sapiens, UniProt P01903+P01911, A100R/A103E/D57H/D86V/F55Y/F60I/F76Y/I96F/K127E/L162R/M171V/P40D/Q125H/Q99R/R33Q/R42F/S133A/S66N/T210M/V115G/W38K/Y107V/Y59G/Y89S); settings: DRB1 *0901
HLA-DR DRB1*0701 (DR7) = HLA-DR DRB1*0701 (DR7) (Homo sapiens, UniProt P01903+P01911, A100R/A102G/A103Q/D57E/D86V/E43K/F76Y/K127E/L162R/M171V/P40G/Q125H/Q99D/R33Q/R42Y/R54Q/S133A/S66F/T210M/V115G/Y107V/Y59L/Y89S); settings: DRB1 *0701
HLA-DR DRB1*0101 (DR1) = HLA-DR DRB1*0101 (DR1) (Homo sapiens, UniProt P01903+P01911, A100R/D57E/F55L/F60I/F76Y/I96L/L162R/M171V/P40L/Q125E/R42F/V115G/Y59C); settings: DRB1 *0101
HLA-DR DRB1*1101 (DR11) = HLA-DR DRB1*1101 (DR11) (Homo sapiens, UniProt P01903+P01911, A100R/A169T/A87E/I96F/K41T/L162R/M171V/P40S/Q125H/Q178H/Q39Y/Q99D/R42S/S66Y/T262R/V115G/W38E); settings: DRB1 *1101
HLA-DR DRB1*0301 (DR3) = HLA-DR DRB1*0301 (DR3) (Homo sapiens, UniProt P01903+P01911, A100K/A102G/A103R/A169T/F55Y/I96L/K41T/L162R/M171V/P40S/Q125H/Q178H/Q39Y/R42S/S66N/T106N/T262R/W38E/Y61H)
Chain of HLA-DR DRB1*0301 (DR3) (P01903 26-254 limits assumed, other chains not shown): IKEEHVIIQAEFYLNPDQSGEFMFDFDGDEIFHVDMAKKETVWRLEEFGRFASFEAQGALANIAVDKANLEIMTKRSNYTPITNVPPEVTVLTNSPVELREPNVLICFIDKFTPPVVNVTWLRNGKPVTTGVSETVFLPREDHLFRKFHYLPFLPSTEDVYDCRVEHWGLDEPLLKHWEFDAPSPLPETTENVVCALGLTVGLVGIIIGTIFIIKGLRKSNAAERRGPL

Chain of HLA-DR DRB1*1302 (DR13) (P01903 26-254 limits assumed, other chains not shown): as above
Chain of HLA-DR DRB1*1101 (DR11) (P01903 26-254 limits assumed, other chains not shown): as above

| Compound | IC50 (HLA-DR DRB1*0802 (DR8)) | IC50 (HLA-DR DRB4*0101 (DR53)) | IC50 (HLA-DR DRB1*1501 (DR15)) | IC50 (HLA-DR DRB5*0101 (DR51)) | IC50 (HLA-DR DRB1*1302 (DR13)) | IC50 (HLA-DR DRB1*0401 (DR4)) | IC50 (HLA-DR DRB3*0101 (DR52)) | IC50 (HLA-DR DRB1*0901 (DR9)) | IC50 (HLA-DR DRB1*0701 (DR7)) | IC50 (HLA-DR DRB1*0101 (DR1)) | IC50 (HLA-DR DRB1*1101 (DR11)) | IC50 (HLA-DR DRB1*0301 (DR3)) |
| --- | --- | --- | --- | --- | --- | --- | --- | --- | --- | --- | --- | --- |
| CSCC[C@H](NC(=O)CNC(=O)[C@H](CC(C)C)NC(=O)[C@H](CCC(N)=O)NC(=O)[C@@H](NC(=O)[C@H](CC(C)C)NC(=O)[C@H](CCC(N)=O)NC(=O)CNC(=O)[C@@H](N)Cc1ccccc1)[C@@H](C)O)C(=O)N[C@@H](CCC(=O)O)C(=O)N[C@@H](CCC(N)=O)C(=O)N[C@@H](Cc1c[nH]cn1)C(=O)N[C@@H](Cc1ccc(O)cc1)C(=O)N[C@@H](CCC(=O)O)C(=O)N[C@@H](CC(C)C)C(=O)O | 110 µM | 0.543 µM | > 22.8 µM | ≥ 100 µM | > 35 µM | 3.21 µM | > 14.4 µM | > 187 µM | > 62.5 µM | 2.26 µM |  |  |
| CC(C)C[C@H](NC(=O)[C@H](CCC(N)=O)NC(=O)[C@H](C)NC(=O)[C@H](CC(N)=O)NC(=O)[C@H](CCCCN)NC(=O)[C@@H](NC(=O)[C@H](CCCCN)NC(=O)[C@H](CC(N)=O)NC(=O)CN)C(C)C)C(=O)N[C@@H](C)C(=O)NCC(=O)N[C@@H](C)C(=O)N[C@@H](CCCCN)C(=O)NCC(=O)N[C@H](C(=O)O)C(C)C | 28.9 µM |  | > 45.5 µM | 1.22 µM | > 35 µM |  | > 12.5 µM | 7.88 µM | > 83.3 µM | 0.677 µM | > 66.7 µM |  |
| CC[C@H](C)[C@H](NC(=O)[C@H](CO)NC(=O)[C@H](CO)NC(=O)[C@H](CC(=O)O)NC(=O)[C@H](C)NC(=O)[C@H](CC(N)=O)NC(=O)[C@@H](NC(=O)[C@H](Cc1ccc(O)cc1)NC(=O)[C@H](C)NC(=O)[C@@H](NC(=O)CN)C(C)C)[C@@H](C)CC)C(=O)N[C@@H](CCC(=O)O)C(=O)NCC(=O)N[C@@H](CC(N)=O)C(=O)N[C@@H](Cc1ccc(O)cc1)C(=O)O | 23.4 µM | 0.477 µM | 7.61 µM | 66.7 µM |  | 0.146 µM | 1.42 µM | 3.05 µM | 6.24 µM |  | > 40 µM |  |
| CC[C@H](C)[C@H](NC(=O)[C@H](CCC(N)=O)NC(=O)[C@@H](NC(=O)[C@H](Cc1ccccc1)NC(=O)[C@H](CC(N)=O)NC(=O)[C@H](Cc1ccc(O)cc1)NC(=O)[C@H](CC(C)C)NC(=O)[C@H](Cc1ccccc1)NC(=O)[C@@H](N)CCCCN)[C@@H](C)O)C(=O)N1CCC[C@H]1C(=O)N[C@@H](Cc1c[nH]cn1)C(=O)N[C@@H](CC(C)C)C(=O)N[C@@H](C)C(=O)NCC(=O)N[C@H](C(=O)O)[C@@H](C)O | 0.415 µM | 0.256 µM |  | 1.6 µM | 0.221 µM |  | 10.2 µM | 0.054 µM | 0.03 µM | 0.34 µM | 0.091 µM |  |
| CC[C@H](C)[C@H](NC(=O)[C@H](CO)NC(=O)[C@@H](NC(=O)CNC(=O)[C@H](CCC(=O)O)NC(=O)[C@@H]1CCCN1)C(C)C)C(=O)N[C@@H](Cc1c[nH]c2ccccc12)C(=O)N[C@@H](CC(N)=O)C(=O)N1CCC[C@H]1C(=O)N[C@H](C(=O)N[C@@H](CC(C)C)C(=O)N[C@@H](CC(C)C)C(=O)N[C@@H](Cc1c[nH]c2ccccc12)C(=O)N[C@@H](CCC(N)=O)C(=O)N1CCC[C@H]1C(=O)O)[C@@H](C)CC | 28.6 µM | 0.107 µM | 0.0072 µM | 22.2 µM |  | 1.78 µM | 4.62 µM | 103 µM | 15 µM |  | 30.9 µM |  |
| CC[C@H](C)[C@H](NC(=O)[C@@H](NC(=O)[C@H](Cc1c[nH]cn1)NC(=O)[C@@H](N)CCCNC(=N)N)C(C)C)C(=O)N[C@@H](Cc1ccc(O)cc1)C(=O)N[C@@H](C)C(=O)N1CCC[C@H]1C(=O)N[C@@H](CO)C(=O)N[C@@H](CO)C(=O)N[C@@H](Cc1c[nH]cn1)C(=O)N[C@@H](CC(N)=O)C(=O)N[C@@H](CCCCN)C(=O)N[C@@H](Cc1ccc(O)cc1)C(=O)N[C@@H](C)C(=O)NCC(=O)O | 11.7 µM | 5.29 µM |  | 0.088 µM |  | 0.481 µM | > 62.8 µM | 0.481 µM | 31.2 µM | 2.17 µM | 13.4 µM |  |
| CC(C)C[C@H](NC(=O)[C@@H](NC(=O)[C@H](CCC(N)=O)NC(=O)[C@H](Cc1c[nH]c2ccccc12)NC(=O)[C@@H]1CCCN1C(=O)[C@H](CCC(N)=O)NC(=O)[C@@H](N)CO)C(C)C)C(=O)N[C@H](C(=O)N[C@@H](C)C(=O)N[C@@H](CO)C(=O)N[C@@H](CCCNC(=N)N)C(=O)NCC(=O)N[C@@H](CCCNC(=N)N)C(=O)N[C@@H](C)C(=O)N[C@H](C(=O)O)C(C)C)C(C)C | 0.386 µM | 7.56 µM | 11.3 µM | 0.084 µM | 0.032 µM | 7.63 µM | > 12.1 µM |  |  | 0.066 µM |  | > 81.8 µM |
| CC[C@H](C)[C@H](NC(=O)[C@H](CO)NC(=O)[C@H](CC(N)=O)NC(=O)[C@H](C)NC(=O)[C@H](CC(C)C)NC(=O)[C@H](CCC(=O)O)NC(=O)[C@H](Cc1ccccc1)NC(=O)[C@@H](N)C(C)C)C(=O)N[C@H](C(=O)N[C@@H](CC(C)C)C(=O)N1CCC[C@H]1C(=O)N[C@@H](Cc1ccccc1)C(=O)N[C@@H](CC(=O)O)C(=O)N[C@@H](CS)C(=O)N[C@@H](CCCNC(=N)N)C(=O)O)C(C)C | 36.1 µM |  | 0.477 µM |  | 0.024 µM | 0.999 µM | 0.128 µM | 0.05 µM | 0.039 µM | 0.019 µM | 11.8 µM |  |
| AKTFLRTLVRGVPEY | 0.0092 µM | 0.472 µM | 0.829 µM | 3.48 µM | 0.094 µM | 0.208 µM | 0.546 µM |  | 0.025 µM | 0.104 µM | 0.0063 µM | 54.2 µM |
| GQRVPVSHSFPHPLY | > 245 µM | 9.86 µM |  | > 200 µM | 0.703 µM | > 40 µM | > 14.9 µM | 0.102 µM | 0.629 µM | 1.56 µM | > 200 µM |  |
| LFRVYSNFLRGKLKL | 0.028 µM | 2.33 µM | 0.0028 µM | 0.0029 µM | 0.08 µM | 0.643 µM | 8.98 µM |  | 0.0055 µM | 0.043 µM | 0.173 µM | 6.16 µM |
| LRMMNDQLMFLERAF | 2.49 µM | 0.05 µM |  | 0.758 µM | 1.31 µM | 0.392 µM | 1.57 µM | 4.6 µM | 17.5 µM | 2.7 µM | 1.83 µM |  |
| NMSLLKHQSLRPDED [NMSLLKHQSLRPDED] | 26.5 µM |  | > 30.3 µM | > 100 µM | > 35 µM | > 40 µM | > 14.9 µM | 96.8 µM |  | 3.13 µM | 25.8 µM |  |
| QWVLTAAHCLKKNSQ | 98 µM | 14.4 µM | > 45.5 µM | 0.382 µM | > 35 µM | > 40 µM | > 14.9 µM | 4.81 µM | 3.4 µM | 0.895 µM |  |  |
| RPGLLGASVLGLDDI | > 61.2 µM | 22 µM | 6 µM | > 88.9 µM | 2.06 µM | 6.52 µM | 30.2 µM |  |  |  | > 93.9 µM | 35.8 µM |
| VILLGRHSLFHPEDT | 0.737 µM | 10.7 µM | 0.426 µM | ≥ 100 µM | 0.543 µM | 8.21 µM | > 12.1 µM |  | 30.6 µM | 0.273 µM |  | 8.74 µM |
